Calls of active or inactive are those of the source.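 Rule for the calls: active = compounds giving half or more protection of infected cells from virus-caused growth loss, again on retest; inactive = the rest.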 Where a SMILES comes first, the peptide text is derived from it. [ ]: non-standard residue; d: D form. pGlu = O=C1CC[CH](C(=O)O)N1
Test system: CEM cells HIV-1 protection, formazan growth assay
Assay: NCI AIDS Antiviral Assay
Conditions: for IC50: measured here: growth of uninfected CEM cells
How it was run: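 Protection of CEM cells against HIV-1 measured as cell growth via soluble formazan read-out, with five concentrations tested on both infected and uninfected cells; failure to protect may reflect toxicity.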

CC1OC(OC2C(O[C@H]3CC[C@@]4(C)C(=CC[C@H]5[C@@H]6C[C@@H]7O[C@]8(CC[C@@H](C)CO8)[C@@H](C)[C@@H]7[C@@]6(C)CC[C@@H]54)C3)OC(CO)C(O)C2OC2OC(CO)C(O)C(O)C2O)C(O)C(O)C1O (stereo not given in full)
EC50: > 200 µM
IC50: 1.17 µM

CC(C)N1[C@@H]2CCCC[C@H]2N(C(C)C)[P+]1=O
EC50: > 200 µM
IC50: > 200 µM

COC(=O)C1(C(=O)OC)C2=Nc3ccccc3[C@@]23CCN(Cc2ccccc2)C3C[C@H]1c1ccoc1 (stereo not given in full)
EC50: > 36.3 µM
IC50: 21.4 µM

COc1cccc(NC(=O)c2c(SC)c(C#N)c(=O)n(N)c2N)c1
EC50: > 200 µM
IC50: 107 µM

CC1(C)S[C@H](c2ccccc2C(=O)O)N[C@@H]1CC(=O)O
outcome: inactive

CC(=O)OCC1OC(n2c(C#N)cc(=O)[nH]c2=O)CC1OC(C)=O (stereo not given)
EC50: > 200 µM
IC50: 57.5 µM

CC(=O)NC1C(OCc2ccccc2)OC(CO)C(O)C1OCC(=O)N1CCCC1C(=O)N[C@@H](CCC(=O)NCCCCNc1c2ccccc2nc2cccc([N+](=O)[O-])c12)C(N)=O (stereo not given in full)
EC50: > 100 µM
IC50: 15.8 µM

COC(=O)c1c2c(cc3c1CC1(C3)Cc3ccc4c(c3C1=O)CCC4)CCC2 (stereo not given)
EC50: > 200 µM
IC50: 4.17 µM

CN(C)c1ccc(/C=C2\Cc3ccccc3C2=O)cc1Br
EC50: > 11 µM
IC50: > 11 µM

Cc1ccc(NC(=O)c2cc3ccccc3c(N=Nc3cc(S(=O)(=O)O)ccc3O)c2O)c(C)c1
EC50: 0.832 µM
IC50: 4.27 µM

COC(=O)CC1C2CCC1C(=O)C2 (stereo not given)
EC50: > 200 µM
IC50: > 200 µM

CCOc1c(Cc2ccccc2)c(=O)nc2c(-c3ccccc3)cncn12
EC50: > 200 µM
IC50: 42.7 µM

O=C(Nc1ccc2c(O)cc(S(=O)(=O)O)cc2c1)Nc1ccc2c(O)cc(S(=O)(=O)O)cc2c1
EC50: 64.6 µM
IC50: 155 µM

Cc1ccc(O)c(C(c2ccc(C(c3cc(C)ccc3O)c3cc(C)ccc3O)cc2)c2cc(C)ccc2O)c1
EC50: > 20 µM
IC50: 3.09 µM

O=C1c2cn[nH]c2N=C(Nc2ccccc2)C1N=Cc1ccc([N+](=O)[O-])cc1 (stereo not given)
EC50: > 200 µM
IC50: 102 µM

CCOc1ccccc1/C=C(/C#N)C(N)=O
EC50: > 200 µM
IC50: 117 µM

CC(=O)O[C@H]1CCC2[C@@H]3CCC4C(=O)c5oncc5C[C@]4(C)C3CC[C@@]21C (stereo not given in full)
outcome: inactive

Cc1cc(NS(=O)(=O)c2ccc(Nc3c4ccccc4nc4c(C(=O)NC=O)cccc34)cc2)no1
EC50: > 200 µM
IC50: 12.3 µM

O=C1c2cccc3cc([N+](=O)[O-])cc(c23)C(=O)N1O
EC50: > 200 µM
IC50: 12 µM

O=C(O)C[C@@H]1C(=O)OC2C(COC(=O)c3cc(O)c(O)c(O)c3)OC(OC(=O)c3cc(O)c(O)c(O)c3)C(OC(=O)c3cc(O)c(O)c4c3C1[C@H](O)C(=O)O4)C2OC(=O)c1cc(O)c(O)c(O)c1 (stereo not given in full)
EC50: 1.48 µM
IC50: 12.9 µM

CCc1n[nH]c(=O)n1-c1ccc2ccccc2c1
EC50: > 100 µM
IC50: > 100 µM

COc1ccc2c3c1OC1C4(OC)C=CC5(c6c(OC)ccc(O)c64)C(C2)N(C)CCC315 (stereo not given)
EC50: > 100 µM
IC50: 53.7 µM

O=[N+]([O-])c1ccc(-c2nc(N(CCO)CCO)c3ccccc3n2)o1
EC50: > 200 µM
IC50: 0.331 µM

COc1ccc(N=C2SC(=N/N=c3\sc4ccccc4n3C)SC2=Nc2ccc(OC)cc2)cc1
EC50: > 200 µM
IC50: 63.1 µM

CC1=C(C(=O)O)N2C(=O)[C@@H](NC(=O)C(c3ccc(O)cc3)N3CSC(=S)N(C(C)C)C3)C2SC1 (stereo not given in full)
EC50: > 479 µM
IC50: 269 µM

O=C1CSc2ncccc2N1c1ccc([N+](=O)[O-])cn1
EC50: > 200 µM
IC50: > 200 µM

COc1ccc(-c2cc3c(c4cc(OC)ccc24)C(=O)OC3=O)cc1
EC50: > 11.2 µM
IC50: > 11.2 µM

CCOC(=O)C(=O)C1C(=O)N(C)C2(C)CC1c1ccccc1O2 (stereo not given)
EC50: > 200 µM
IC50: > 200 µM

O=[N+]([O-])c1cc(F)ccc1S(=O)(=O)c1ccccc1
EC50: > 200 µM
IC50: 35.5 µM

Cn1c(=O)c2c(c3c(c(=O)n(C)c(=O)n3C)n2Cc2ccccc2)n(C)c1=O
EC50: > 93.3 µM
IC50: > 93.3 µM

CC1(CCCO)CCCCCCCCCC(C)(CCCO)C1=O (stereo not given)
EC50: > 200 µM
IC50: 115 µM

CCOC(=O)[C@H]1Nc2ccc(C)cc2C2c3ccccc3CC21 (stereo not given in full)
EC50: > 17 µM
IC50: > 17 µM

CCCCCC1=CC(=O)C=C(OC)C12C(=O)Oc1cc(O)c(C(=O)O)c(CCCCC)c12 (stereo not given)
EC50: > 562 µM
IC50: 77.6 µM

CCN(CC)c1c(C)nnn1C1OC(COC(C)=O)C(OC(C)=O)C(OC(C)=O)C1OC(C)=O (stereo not given)
EC50: > 141 µM
IC50: > 141 µM

CC(=O)OC1CC2C(C)(C)C(=O)C=C[C@]2(C)C2CCC3(C)C(c4ccoc4)C(=O)C4OC43[C@]12C (stereo not given in full)
outcome: inactive

O=C(/C=C\c1cccc2ccccc12)c1cccc2ccccc12
EC50: > 8.91 µM
IC50: > 8.91 µM

COc1cc(C(O)C(O)c2cc(CN3CCOCC3)c(O)c(OC)c2)cc(CN2CCOCC2)c1O (stereo not given)
EC50: > 200 µM
IC50: > 200 µM

O=C1CSC(=S)N1
EC50: > 1860 µM
IC50: 794 µM

CN(C)c1ccc(C=Nc2ccc(S(N)(=O)=O)cc2)cc1
EC50: > 200 µM
IC50: > 200 µM

Cc1cccc(C)c1NC(=O)CCc1nnc2s/c(=C\c3ccc(N(C)C)cc3)c(=O)n12
EC50: > 1.7 µM
IC50: > 1.7 µM

Cc1csc2nc(-c3ccncc3)cn12
EC50: > 417 µM
IC50: 105 µM

O=c1c2cc([N+](=O)[O-])ccc2sc2ccsc12
EC50: > 97.7 µM
IC50: > 97.7 µM

COc1ccccc1NC(=S)N/N=C(/c1ccccc1)c1ccccn1
EC50: > 0.2 µM
IC50: 0.0813 µM

[N-]=[N+]=Nc1ccc(SSCCC(=O)ON2C(=O)CCC2=O)cc1
EC50: > 200 µM
IC50: 7.59 µM

COc1cccc(C2CCCC(C#N)C2=N)c1OC (stereo not given)
EC50: > 200 µM
IC50: 126 µM

CC1CN2C(=O)[C@@H](OC(=O)Nc3cc([N+](=O)[O-])cc([N+](=O)[O-])c3)[C@H]3CC[C@@H]1[C@]32C (stereo not given in full)
EC50: > 100 µM
IC50: 55 µM

Cc1cc(C)nc(NC(=S)Nc2ccc([N+](=O)[O-])cc2)c1
EC50: > 200 µM
IC50: > 200 µM

NC(=O)C(=O)N/N=C/c1ccc([N+](=O)[O-])o1
EC50: > 200 µM
IC50: 8.32 µM

COC(=O)NC[C@@H]1OCc2cc3c(cc2[C@]12C=CCCC2)OCO3
EC50: > 107 µM
IC50: 2.63 µM

Oc1ccc(Cl)cc1-c1[nH]c(=S)nc(-c2ccccc2)c1Cl
EC50: > 200 µM
IC50: > 200 µM

COc1c(C)c(C/C=C(\C)CCCCO)c(OC)c(OC)c1OC
EC50: > 200 µM
IC50: 26.3 µM

NNC1=Cn2c(nc3ccccc32)NN1
outcome: inactive

CC(=O)OCC(OC(C)=O)C(OC(C)=O)C(OC(C)=O)C(/C=N\Nc1nc2ccccc2c(=O)[nH]1)=N/Nc1nc2ccccc2c(=O)[nH]1 (stereo not given)
EC50: > 100 µM
IC50: > 100 µM

CCCCCCNCCCNc1c2cc(OC)ccc2nc2cccc([N+](=O)[O-])c12
EC50: > 2 µM
IC50: 0.347 µM

CC(NC(=O)C(Cc1cnc[nH]1)NC(=O)C1CCC(=O)N1)C(N)=O (stereo not drawn) ([pGlu]-His-Ala-NH2; configuration not given here)
EC50: > 200 µM
IC50: > 200 µM

CSC1=N/C(=C\c2ccc(Cl)cc2)C(=O)N1CN1CCOCC1
EC50: > 200 µM
IC50: 33.1 µM

O=C(Nc1ccc(Cl)cc1)/C(Cc1cccc[n+]1[O-])=N\Nc1ccc([N+](=O)[O-])cc1[N+](=O)[O-]
EC50: > 107 µM
IC50: > 107 µM

— PubChem BioAssay AID179 (DTP/NCI, 2004)
